We go through one compound from patent publication US20120270237A9, “METHODS FOR THE IDENTIFICATION OF KINASE INTERACTING MOLECULES AND FOR THE PURIFICATION OF KINASE PROTEINS” (Cellzone AG, priority 2009, published 2012).

The target of one assay is STK33 (Homo sapiens, UniProt Q9BYT3). Briefly: Kinobeads competition binding, L-363 cell lysate. On the set-up: endogenous in cells; host or cells: L-363 cells (treated with MG132 before harvest). The settings on record: 10 μM free compound, L-363 lysate. As to the method: (§1) To one aliquot of cell lysate 10 μM of the free compound (FIG. 3, CZC31326) was added and allowed to bind to proteins in the lysate. Then the affinity matrix with the immobilized compound was added to capture proteins that were not interacting with the previously added free compound. Beads were separated from the lysate and bead bound proteins were eluted in SDS sample buffer and subsequently separated by SDS-Polyacrylamide gel electrophoresis (FIG. 8). Suitable gel bands were cut out and subjected to in-gel proteolytic digestion with trypsin. The second lysate aliquot was processed identically, however no free compound was added (DMSO solvent control). Peptides originating from samples 1 and 2 were labeled with iTRAQ reagents (iTRAQ 114 and iTRAQ 117) and the combined samples were analyzed with a nano-flow liquid chromatography system coupled online to a tandem mass spectrometer (LC-MS/MS) experiment followed by iTRAQ reporter ion quantification in the MS/MS spectra as described in Example 2.
(§2) For this experiment the human plasma cell leukaemia line L-363 was used (German Collection of Microorganisms and Cell Cultures, DSMZ number ACC49, Braunschweig, Germany). Cells were treated for three hours with 20 μM of the proteasome inhibitor MG132 (Z-Leu-Leu-Leu-al, Sigma C2211) prior to cell harvesting.

Another assay has as its target PLK4 (Homo sapiens, UniProt O00444). The assay is described as follows: Kinobeads competition binding, L-363 cell lysate. The settings on record: 10 μM free compound, L-363 lysate. On the set-up: endogenous in cells; host or cells: L-363 cells (treated with MG132 before harvest). As to the method:
as §1, §2

Another assay has as its target T1, PKG1 (Homo sapiens, UniProt Q13976).
T1 construct: capturing and identification of kinases from mixed HeLa placenta lysates; endogenous in cells; host or cells: mixed lysate of HeLa cells and placenta tissue
The assay is described as follows: Kinobeads competition binding, HeLa Placenta lysate mix. The settings on record: 10 μM free compound. The method, then:
as §1, with “10).” for “8).”

The next assay concerns the target T2, CaMKK1 (Homo sapiens, UniProt Q8N5S9).
T2 construct: capturing and identification of kinases from mixed HeLa placenta lysates; endogenous in cells; host or cells: mixed lysate of HeLa cells and placenta tissue
The assay is described as above. The settings on record: 10 μM free compound. As to the method: as §1, with “10).” for “8).”

Another assay addresses T3, FAK (Homo sapiens, UniProt Q05397).
T3 construct: capturing and identification of kinases from mixed HeLa placenta lysates; endogenous in cells; host or cells: mixed lysate of HeLa cells and placenta tissue
The assay is described as above. The settings on record: 10 μM free compound. The method, then: as §1, with “10).” for “8).”

In a further assay the target is T4, SRC (Homo sapiens, UniProt P12931).
T4 construct: capturing and identification of kinases from mixed HeLa placenta lysates; endogenous in cells; host or cells: mixed lysate of HeLa cells and placenta tissue
The description is as above. The settings on record: 10 μM free compound. As to the method:
as §1, with “10).” for “8).”

The target of another assay is T5, TIE2 (Homo sapiens, UniProt Q02763).
T5 construct: capturing and identification of kinases from mixed HeLa placenta lysates; endogenous in cells; host or cells: mixed lysate of HeLa cells and placenta tissue
The assay is described as above. The following applies: 10 μM free compound. As to the method:
as §1, with “10).” for “8).”

Another assay concerns the target T6, FLT4 (Homo sapiens, UniProt P35916).
T6 construct: capturing and identification of kinases from mixed HeLa placenta lysates; endogenous in cells; host or cells: mixed lysate of HeLa cells and placenta tissue
Described as above. The settings on record: 10 μM free compound. As to the method:
as §1, with “10).” for “8).”

Another assay concerns the target T7, MRCKb (Homo sapiens, UniProt Q9Y5S2).
T7 construct: capturing and identification of kinases from mixed HeLa placenta lysates; endogenous in cells; host or cells: mixed lysate of HeLa cells and placenta tissue
Described as above. The settings on record: 10 μM free compound. As to the method: as §1, with “10).” for “8).”

A further assay addresses T8, MAP3K7 (Homo sapiens, UniProt O43318).
T8 construct: capturing and identification of kinases from mixed HeLa placenta lysates; endogenous in cells; host or cells: mixed lysate of HeLa cells and placenta tissue
The assay is described as above. The following applies: 10 μM free compound. The method, then: as §1, with “10).” for “8).”

The target of the next assay is T9, AMPKa2 (Homo sapiens, UniProt P54646).
T9 construct: capturing and identification of kinases from mixed HeLa placenta lysates; endogenous in cells; host or cells: mixed lysate of HeLa cells and placenta tissue
The assay is described as above. The settings on record: 10 μM free compound. As to the method: as §1, with “10).” for “8).”

In the next assay the target is T10, MRCKa (Homo sapiens, UniProt Q5VT25).
T10 construct: capturing and identification of kinases from mixed HeLa placenta lysates; endogenous in cells; host or cells: mixed lysate of HeLa cells and placenta tissue
The description is as above. The settings on record: 10 μM free compound. As to the method: as §1, with “10).” for “8).”

For the next assay, the target named is T11, TNK1 (Homo sapiens, UniProt Q13470).
T11 construct: capturing and identification of kinases from mixed HeLa placenta lysates; endogenous in cells; host or cells: mixed lysate of HeLa cells and placenta tissue
The assay is described as above. The following applies: 10 μM free compound. As to the method: as §1, with “10).” for “8).”

A further assay deals with T12, KDR (Homo sapiens, UniProt P35968).
T12 construct: capturing and identification of kinases from mixed HeLa placenta lysates; endogenous in cells; host or cells: mixed lysate of HeLa cells and placenta tissue
The description is as above. The settings on record: 10 μM free compound. The method, then:
as §1, with “10).” for “8).”

The target in the next assay is T13, MAP3K6 (Homo sapiens, UniProt O95382).
T13 construct: capturing and identification of kinases from mixed HeLa placenta lysates; endogenous in cells; host or cells: mixed lysate of HeLa cells and placenta tissue
Described as above. The settings on record: 10 μM free compound. The method, then:
as §1, with “10).” for “8).”

Sequence of STK33 (Q9BYT3 whole entry): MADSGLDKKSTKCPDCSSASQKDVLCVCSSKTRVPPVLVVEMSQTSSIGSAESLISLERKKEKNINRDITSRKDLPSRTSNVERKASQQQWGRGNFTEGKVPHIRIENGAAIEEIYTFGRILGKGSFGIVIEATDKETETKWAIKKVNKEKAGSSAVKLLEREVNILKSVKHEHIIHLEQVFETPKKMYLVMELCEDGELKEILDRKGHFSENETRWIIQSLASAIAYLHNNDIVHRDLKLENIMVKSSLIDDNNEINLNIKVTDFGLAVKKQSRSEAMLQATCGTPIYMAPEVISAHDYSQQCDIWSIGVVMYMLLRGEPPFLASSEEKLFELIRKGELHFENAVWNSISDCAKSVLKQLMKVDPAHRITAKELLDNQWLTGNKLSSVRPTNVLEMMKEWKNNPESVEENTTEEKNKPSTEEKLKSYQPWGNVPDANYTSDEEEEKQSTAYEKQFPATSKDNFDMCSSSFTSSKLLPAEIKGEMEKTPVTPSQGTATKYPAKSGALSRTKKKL
T11 sequence (Q13470 whole entry): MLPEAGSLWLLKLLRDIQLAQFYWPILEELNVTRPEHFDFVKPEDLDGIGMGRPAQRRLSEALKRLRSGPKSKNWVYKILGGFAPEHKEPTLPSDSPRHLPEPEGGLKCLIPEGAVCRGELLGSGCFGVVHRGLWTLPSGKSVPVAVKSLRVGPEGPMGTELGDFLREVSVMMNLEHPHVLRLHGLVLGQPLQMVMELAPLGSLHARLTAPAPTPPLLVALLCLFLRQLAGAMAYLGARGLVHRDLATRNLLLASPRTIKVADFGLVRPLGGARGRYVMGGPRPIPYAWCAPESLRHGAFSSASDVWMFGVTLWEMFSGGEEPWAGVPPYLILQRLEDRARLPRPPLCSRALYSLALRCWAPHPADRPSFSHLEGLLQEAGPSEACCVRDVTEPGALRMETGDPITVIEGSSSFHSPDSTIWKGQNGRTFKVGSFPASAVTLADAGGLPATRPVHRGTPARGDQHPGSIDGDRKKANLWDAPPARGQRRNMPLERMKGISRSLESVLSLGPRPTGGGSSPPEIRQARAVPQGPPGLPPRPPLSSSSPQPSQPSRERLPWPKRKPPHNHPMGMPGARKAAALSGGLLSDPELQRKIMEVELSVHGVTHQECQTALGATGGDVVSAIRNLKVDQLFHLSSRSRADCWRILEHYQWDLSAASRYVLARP
T3 sequence (Q05397 whole entry): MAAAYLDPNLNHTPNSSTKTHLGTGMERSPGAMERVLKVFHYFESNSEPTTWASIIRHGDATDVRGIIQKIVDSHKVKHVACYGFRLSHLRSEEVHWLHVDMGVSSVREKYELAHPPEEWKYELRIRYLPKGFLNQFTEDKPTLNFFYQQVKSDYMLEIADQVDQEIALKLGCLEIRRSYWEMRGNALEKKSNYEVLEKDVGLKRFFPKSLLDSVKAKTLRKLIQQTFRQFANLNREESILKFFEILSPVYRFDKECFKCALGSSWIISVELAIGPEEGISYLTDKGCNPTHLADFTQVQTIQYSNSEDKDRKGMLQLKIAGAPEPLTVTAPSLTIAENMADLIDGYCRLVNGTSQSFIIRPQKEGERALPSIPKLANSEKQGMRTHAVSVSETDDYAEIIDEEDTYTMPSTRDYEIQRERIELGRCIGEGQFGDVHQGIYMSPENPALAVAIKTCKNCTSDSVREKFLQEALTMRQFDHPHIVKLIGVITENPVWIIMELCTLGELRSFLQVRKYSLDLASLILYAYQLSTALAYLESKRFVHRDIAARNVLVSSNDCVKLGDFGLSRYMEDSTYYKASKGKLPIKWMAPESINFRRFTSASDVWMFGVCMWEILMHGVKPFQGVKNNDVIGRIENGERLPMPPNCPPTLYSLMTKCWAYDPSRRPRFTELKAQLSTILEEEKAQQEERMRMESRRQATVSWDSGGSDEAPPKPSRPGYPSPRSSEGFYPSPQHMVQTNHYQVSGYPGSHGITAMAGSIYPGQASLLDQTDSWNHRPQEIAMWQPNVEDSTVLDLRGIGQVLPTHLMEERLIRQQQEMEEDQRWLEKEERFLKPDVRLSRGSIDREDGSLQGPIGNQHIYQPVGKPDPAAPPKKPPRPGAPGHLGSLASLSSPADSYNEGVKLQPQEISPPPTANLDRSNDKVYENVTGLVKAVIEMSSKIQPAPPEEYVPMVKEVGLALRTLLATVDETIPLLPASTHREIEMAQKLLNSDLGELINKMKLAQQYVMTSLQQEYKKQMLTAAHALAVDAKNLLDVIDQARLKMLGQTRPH
T2 sequence (Q8N5S9 whole entry): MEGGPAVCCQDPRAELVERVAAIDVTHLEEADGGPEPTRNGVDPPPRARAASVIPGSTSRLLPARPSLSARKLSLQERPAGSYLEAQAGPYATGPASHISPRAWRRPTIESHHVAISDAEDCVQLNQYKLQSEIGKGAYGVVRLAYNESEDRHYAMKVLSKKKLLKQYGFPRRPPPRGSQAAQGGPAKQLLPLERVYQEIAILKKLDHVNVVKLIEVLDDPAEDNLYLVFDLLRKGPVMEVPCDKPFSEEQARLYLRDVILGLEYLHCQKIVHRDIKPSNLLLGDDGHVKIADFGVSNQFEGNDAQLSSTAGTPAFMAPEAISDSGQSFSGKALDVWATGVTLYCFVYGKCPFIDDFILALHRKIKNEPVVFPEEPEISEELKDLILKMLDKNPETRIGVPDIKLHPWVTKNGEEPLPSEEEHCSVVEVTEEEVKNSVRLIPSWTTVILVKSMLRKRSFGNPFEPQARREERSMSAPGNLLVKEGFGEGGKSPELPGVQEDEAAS
T6 sequence (P35916 25-1363): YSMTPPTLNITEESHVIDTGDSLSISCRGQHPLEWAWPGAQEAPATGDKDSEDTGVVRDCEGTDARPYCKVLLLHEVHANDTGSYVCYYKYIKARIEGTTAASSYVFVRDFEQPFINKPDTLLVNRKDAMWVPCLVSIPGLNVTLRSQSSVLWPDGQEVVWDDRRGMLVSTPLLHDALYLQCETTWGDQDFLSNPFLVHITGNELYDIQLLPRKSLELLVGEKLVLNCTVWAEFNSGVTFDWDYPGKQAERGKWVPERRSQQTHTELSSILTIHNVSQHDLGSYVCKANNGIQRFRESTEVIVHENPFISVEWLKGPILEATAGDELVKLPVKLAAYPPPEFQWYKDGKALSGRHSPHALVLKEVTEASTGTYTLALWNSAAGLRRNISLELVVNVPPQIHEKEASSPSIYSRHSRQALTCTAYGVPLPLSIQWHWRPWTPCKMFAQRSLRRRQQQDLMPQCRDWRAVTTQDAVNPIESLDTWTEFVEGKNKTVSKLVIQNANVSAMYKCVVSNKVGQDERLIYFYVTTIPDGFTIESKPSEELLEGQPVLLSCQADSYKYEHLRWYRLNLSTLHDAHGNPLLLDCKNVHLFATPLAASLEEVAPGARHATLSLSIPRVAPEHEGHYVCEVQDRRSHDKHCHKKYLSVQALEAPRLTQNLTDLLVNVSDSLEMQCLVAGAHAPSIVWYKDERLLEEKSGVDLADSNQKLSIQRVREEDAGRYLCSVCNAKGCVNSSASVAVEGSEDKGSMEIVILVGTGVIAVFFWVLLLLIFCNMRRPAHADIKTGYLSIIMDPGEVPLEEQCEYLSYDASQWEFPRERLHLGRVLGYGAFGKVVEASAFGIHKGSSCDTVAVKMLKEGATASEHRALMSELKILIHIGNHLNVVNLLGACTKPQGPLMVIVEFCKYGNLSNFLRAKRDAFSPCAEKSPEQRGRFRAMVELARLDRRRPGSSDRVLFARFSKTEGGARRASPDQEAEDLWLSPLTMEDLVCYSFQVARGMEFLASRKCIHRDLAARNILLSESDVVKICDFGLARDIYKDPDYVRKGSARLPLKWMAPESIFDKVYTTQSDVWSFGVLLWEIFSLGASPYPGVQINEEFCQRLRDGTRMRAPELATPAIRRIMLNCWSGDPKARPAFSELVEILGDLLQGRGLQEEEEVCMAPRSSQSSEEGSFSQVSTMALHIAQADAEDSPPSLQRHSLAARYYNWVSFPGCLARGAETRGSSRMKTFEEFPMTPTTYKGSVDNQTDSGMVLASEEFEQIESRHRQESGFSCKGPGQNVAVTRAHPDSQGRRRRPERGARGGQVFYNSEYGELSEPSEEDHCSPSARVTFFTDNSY
T4 sequence (P12931 whole entry): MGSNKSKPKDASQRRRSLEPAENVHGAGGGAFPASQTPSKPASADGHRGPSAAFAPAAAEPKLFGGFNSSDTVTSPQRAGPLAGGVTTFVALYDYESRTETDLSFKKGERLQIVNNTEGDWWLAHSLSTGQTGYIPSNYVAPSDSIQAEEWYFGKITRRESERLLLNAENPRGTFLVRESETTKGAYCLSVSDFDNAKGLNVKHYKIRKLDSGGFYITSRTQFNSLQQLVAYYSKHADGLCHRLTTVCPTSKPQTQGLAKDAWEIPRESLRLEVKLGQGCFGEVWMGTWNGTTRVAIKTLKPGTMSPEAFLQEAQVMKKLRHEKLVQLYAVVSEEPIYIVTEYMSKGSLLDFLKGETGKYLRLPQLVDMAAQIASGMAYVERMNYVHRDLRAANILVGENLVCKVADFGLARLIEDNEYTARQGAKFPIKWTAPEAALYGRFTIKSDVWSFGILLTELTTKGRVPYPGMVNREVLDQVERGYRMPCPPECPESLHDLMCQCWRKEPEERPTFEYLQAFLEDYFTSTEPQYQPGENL

Usually inhibition stands for the drop in the measured response relative to a control, in per cent. Turning to `CS(=O)(=O)Nc1ccccc1Nc1nc(Nc2cccc(OCCN)c2)ncc1Cl` [CZC31326, N-(2-(2-(3-(2-aminoethoxy)phenylamino)-5-chloropyrimidin-4-ylamino)phenyl)methanesulfonamide], the inhibition at 10 µM on STK33 amounted to 95.7%; at PLK4, 91.2%; on PKG1 it was 90.4%; at CaMKK1, 94.2%; on FAK, 93.8%; at SRC it was 92.2%. Also, the inhibition at 10 µM on TIE2 came out at 91.6%; at FLT4, 89.3%; at MRCKb, 94%; at MAP3K7 it was 82.1%; on AMPKa2 it was 95.2%; on MRCKa, 92.1%. The inhibition at 10 µM on TNK1 was 94.3%; at KDR it was 90%; on MAP3K6, 84.3%.
